Tests used:
cats [1] = experiment: Dermatological scores of control cats treated with nitenpyram; assay type: in vivo; conditions: control groups, FIG. 5
Experimental: (§1) To determine relationship of infestation and FAD symptom, 10 cats were separated into three groups, including an experimental group with six cats and two control groups with two cats each. One control group was treated nitenpyram, and another was not treated with the nitenpyram. Each experimental cat was lived separated on day 0 and infested with 100 fleas. After two days, all cats in this group were given the nitenpyram to remove the flea from their bodies. Two of the control cats were also given this medicine on day 0. This challenge cycle was repeated every other week for 7 times
Cats were scored by the dermatological assessments two days after ceasing each infestation. The assessments were included erythema, papules, crusts, scale, alopecia, excoriation. The body of each cat was divided into three portions to assess which part might have the most severe clinical outcome. According the previous documented report, three parts were consisted of: (1) back, from the head to the tail of dorsal surface; (2) double lateral abdomen, from the scapula to the tail; (3) chest and underside, from laryngeal to the caudomedial thighs.

cats [2] = experiment: Blood smear cell counts of control cats treated with nitenpyram; assay type: in vivo
Experimental: as §1
The anti-coagulant peripheral blood at 2 ml was collected on days 0, 2, 16, 30, 44, 58, 62 from the experiment group and day 0, 14, 28, 42, 56, 60 from the control groups. The same samples were collected after the immunization. A drop of blood was smeared on a clean glass slide. After the smear was dried, the cells were stained with Wright-Giemsa stain for 15 min. After a rinse in deionized water, the smear was gently dried with Kimwipe paper and dehydrated by 96% and 100% ethonol with each 10 seconds treatment. The slide was then treated with xylene for 30 min.
After the staining, nucleus and cytoplasm of blood cell was distinguished by a blue and pink staining. The percentage of each type of cells was counted by a total number of 200 cells in a view under a light microscope.

[3] = peripheral blood, control group with nitenpyram, day 58

## CCN(Cc1ccc(Cl)nc1)/C(=C/[N+](=O)[O-])NC [nitenpyram]
Cats [1]
  dermatology score, cats treated with nitenpyram compared with the ones without treatment: no significant difference
Cats [2]; comparison of the two control groups
  interference with the cell numbers in the cats' peripheral blood: not to interfere
Cats [2]; [3]
  Basophils (%): 0.7%
  Eosinophils (%): 3.4%
  Lymphocytes (%): 21.8%
  Monocytes (%): 3.6%
  Neutrophils (%): 70.5%
